From patent US20230295145A1, “PYRROLIDINE DERIVATIVES AND METHODS OF USE” (Genentech, Inc., priority 2020, published 2023)
Read-outs that look alike come from different tables or passages of the source.

Tests used:
[1] = test system: HCC1438; assay: Cell Viability Assay (CellTiter-Glo); assay type: cell-based; details: 10 μM, 5 days
Experimental: (§1) Cell lines were cultured in RPMI-1640, 5% fetal bovine serum, and 2 mM glutamine in a humidified incubator maintained at 37° C. with 5% CO2. Cells were assessed with a Vi-CELL Cell Viability Analyzer (Beckman Coulter; Brea, CA); viability of at least 90% was required for screening. A Multidropä Combi Reagent Dispenser (Thermo Scientific; Waltham, MA) was used to plate cells into Falcons^â 384-well, black, clear-bottom plates (Catalog No. 353962; Corning; Tewksbury, MA) using seeding densities previous determined to achieve approximately 80% confluence at the final time point of the assay. The compounds were prepared at 1000× in advance using an Echo 555 liquid handler (Labcyte; Sunnyvale, CA) and stored in −80° C. until the day of compound addition. On the following day, cells were treated with compounds at final assay concentration 1 uM and 10 uM using a Bravo Automated Liquid-Handling Platform (Agilent; Santa Clara, CA). After 5 days, 25 mL CellTiter-Glo^â reagent was added using a MultiFloä Microplate Dispenser (BioTek; Winooski, VT). Cell lysis was induced by mixing for 30 minutes on an orbital shaker; plates were then incubated at room temperature for 10 minutes to stabilize the luminescent signal. Luminescence was read by a 2104 EnVision^â Multilabel Plate Reader (PerkinElmer; Waltham, MA). […]

[2] = test system: KPL-1; assay: Cell Viability Assay (CellTiter-Glo); assay type: cell-based; details: 5 days
Experimental: (§2) Cell lines were cultured in RPMI-1640, 5% fetal bovine serum, and 2 mM glutamine in a humidified incubator maintained at 37° C. with 5% CO2. Cells were assessed with a Vi-CELL Cell Viability Analyzer (Beckman Coulter; Brea, CA); viability of at least 90% was required for screening. A Multidropä Combi Reagent Dispenser (Thermo Scientific; Waltham, MA) was used to plate cells into Falcons^â 384-well, black, clear-bottom plates (Catalog No. 353962; Corning; Tewksbury, MA) using seeding densities previous determined to achieve approximately 80% confluence at the final time point of the assay. The compounds were prepared at 1000× in advance using an Echo 555 liquid handler (Labcyte; Sunnyvale, CA) and stored in −80° C. until the day of compound addition. On the following day, cells were treated with compounds at final assay concentration 1 uM and 10 uM using a Bravo Automated Liquid-Handling Platform (Agilent; Santa Clara, CA). After 5 days, 25 mL CellTiter-Glo^â reagent was added using a MultiFloä Microplate Dispenser (BioTek; Winooski, VT). Cell lysis was induced by mixing for 30 minutes on an orbital shaker; plates were then incubated at room temperature for 10 minutes to stabilize the luminescent signal. Luminescence was read by a 2104 EnVision^â Multilabel Plate Reader (PerkinElmer; Waltham, MA).
(§3) The data was processed using Genedata Screener^â, Version 15 (Genedata; Basel, Switzerland) to assess compound effects on viability. Compound treated wells were normalized to the median value of 14 DMSO control wells on the same 384 well plate.

[3] = test system: PANC-1; assay: Cell Viability Assay (CellTiter-Glo); assay type: cell-based; details: 5 days
Experimental: as §2, §3

[4] = test system: NCI-H2030; assay: Cell Viability Assay (CellTiter-Glo); assay type: cell-based; details: 5 days
Experimental: as §2, §3

[5] = test system: SW 620; assay: Cell Viability Assay (CellTiter-Glo); assay type: cell-based; details: 10 μM, 5 days
Experimental: as §1

[6] = test system: KPL-4; assay: Cell Viability Assay (CellTiter-Glo); assay type: cell-based; details: 10 μM, 5 days
Experimental: as §1

[7] = test system: CAL-120; assay: Cell Viability Assay (CellTiter-Glo); details: 5 days
Experimental: as §2, §3

[8] = test system: MDA-MB-436; assay: Cell Viability Assay (CellTiter-Glo); assay type: cell-based; details: 10 μM, 5 days
Experimental: as §1

[9] = target: T1, VHL (Homo sapiens, UniProt P40337); assay: VHL HEK-293 BRET Assay (VHL NanoBRET Target Engagement Assay); assay type: cell-based; details: HEK 293 RT VHL-NanoLuc stable cells
T1 construct: expressed in transfected cells
T1 sequence (P40337 whole entry): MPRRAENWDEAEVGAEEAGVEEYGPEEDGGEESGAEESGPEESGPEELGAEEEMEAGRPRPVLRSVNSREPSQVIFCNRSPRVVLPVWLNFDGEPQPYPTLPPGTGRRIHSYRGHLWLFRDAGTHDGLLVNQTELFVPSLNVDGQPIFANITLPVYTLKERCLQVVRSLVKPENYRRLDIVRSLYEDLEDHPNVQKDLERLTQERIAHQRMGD
Experimental: The VHL NanoBRET™ Target Engagement Assay analyzes the apparent affinity of test compounds for VHL in cells by competitive displacement of a VHL NanoBRET™ tracer reversibly bound to a NanoLuc® VHL fusion protein stably expressed in the cells.
Test compounds were transferred to the assay plate (384 Well White Non-Binding Corning Assay Plates (Corning-3574)) using an Echo 555 Liquid Handler (Labcyte) in 2.5 nL increments and, as appropriate, intermediate stock concentrations of compounds, in order to prepare a titration series. 50 nL of control compound (10 mM; parental unlabeled VHL antagonist; see structure below) and 50 nL of DMSO (negative control) were dispensed into the appropriate control wells. DMSO was backfilled to a final volume of 50 nL as required. 50 nl per well of 1 mM VHL NanoBRET™ Tracer in DMSO (NanoBRET™ Tracer-PEG2-590 (see structure below)) was transferred into each well using an Echo 555 (ultimately yielding a final concentration of 1 uM). HEK 293 RT VHL-NanoLuc® stable cells were cultured in DMEM High Glucose with Pyruvate, 10% fetal bovine serum, 2 mg/mL of Geneticin Selective Antibiotic (50 mg/mL) and 2 mM HEPES (1 M). Cells were seeded in Opti-MEM (Life Technologies-11058-021), 1.7×10^5 cells/mL, 40 μl per well into the assay plate, centrifuged at 500 rpm for 30 seconds and incubated for 2 hours. Max Signal control wells consisted of DMSO only treated wells. Minimum Signal control wells contained of 10 uM parental unlabeled VHL antagonist (control compound—see structure below). 3× Complete Substrate plus Inhibitor Solution was prepared in Opti-MEM (consists of a 1:166 dilution of NanoBRET™ Nano-Glo® Substrate plus a 1:500 dilution of Extracellular NanoLuc® Inhibitor in Opti-MEM), and 20 ul was dispensed into each well of the 384-well plate and centrifuged at 1000 rpm for 1 minute, then incubated for 2 minutes at room temperature. Background Signal control wells were prepared without tracer for background correction steps.
Plates were read using a PerkinElmer Envision Reader (model 2104-0020) equipped with Luminescence option (Mirror: BRET2 Enh (PE Barcode 659), Emission Filter: Omega 610LP (Barcode 504), 2nd Emission Filter: Umbelliferone 460 (Barcode 207), Measurement height: 6.5 mm, Measurement time: 1 s). The raw BRET ratio values were calculated by dividing the acceptor emission value (610 nm) by the donor emission value (460 nm) for each sample. To correct for background, the BRET ratio in the absence of tracer (average of no-tracer control samples) was subtracted from the BRET ratio of each sample. Raw BRET units were converted to milliBRET units (mBU) by multiplying each raw BRET value by 1,000. The normalized NanoBRET™ signal was calculated relative to the Max Signal control wells (DMSO treated control wells) and the Minimum Signal control wells. Percentage inhibition was calculated relative to the Minimum Signal control and Maximum Signal control wells. IC50 values were derived by four parameter curve fitting using the Robust method.

[10] = test system: HCC366; assay: Cell Viability Assay (CellTiter-Glo); assay type: cell-based; details: 5 days
Experimental: as §2, §3

[11] = test system: KNS-62; assay: Cell Viability Assay (CellTiter-Glo); assay type: cell-based; details: 5 days
Experimental: as §2, §3

[12] = target: T1, VHL; assay: VHL HEK-293 BRET Assay (VHL NanoBRET Target Engagement Assay); assay type: cell-based; details: IC50 values measured in the presence of digitonin; HEK 293 RT VHL-NanoLuc stable cells; read-out: IC50 + Digi (μM)*
[13] = test system: ABC-1; assay: Cell Viability Assay (CellTiter-Glo); assay type: cell-based; details: 10 μM, 5 days
Experimental: as §2, §3

[14] = test system: MCF-7; assay: Cell Viability Assay (CellTiter-Glo); assay type: cell-based; details: 10 μM, 5 days
Experimental: as §1

[15] = test system: SUIT-2; assay: Cell Viability Assay (CellTiter-Glo); assay type: cell-based; details: 10 μM, 5 days
Experimental: as §1

[16] = test system: NCI-H23; assay: Cell Viability Assay (CellTiter-Glo); assay type: cell-based; details: 5 days
Experimental: as §2, §3

[17] = test system: NCI-H1650; assay: Cell Viability Assay (CellTiter-Glo); assay type: cell-based; details: 10 μM, 5 days
Experimental: as §1

[18] = test system: CAL-120; details: 10 µM
Experimental: as §2, §3

## Cc1ncsc1-c1ccc(CNC(=O)[C@@H]2C[C@@H](O)CN2C(=O)[C@@H](n2cc(C3CC3)nn2)C(C)(C)C)cc1 [Compound 288, (2S,4R)-1-[(2S)-2-(4-cyclopropyltriazol-1-yl)-3,3-dimethyl-butanoyl]-4-hydroxy-N-[[4-(4-methylthiazol-5-yl)phenyl]methyl]pyrrolidine-2-carboxamide]
[1]
  Normalized viability % DMSO: 2.1 % DMSO
[2]; 1 μM
  Normalized viability % DMSO: 40.5 % DMSO
[2]; 10 μM
  Normalized viability % DMSO: 25.4 % DMSO
[3]; 1 μM
  Normalized viability % DMSO: 33.9 % DMSO
[3]; 10 μM
  Normalized viability % DMSO: 31.1 % DMSO
[4]; 1 μM
  Normalized viability % DMSO: 19.2 % DMSO
[4]; 10 μM
  Normalized viability % DMSO: 16.5 % DMSO
[5]
  Normalized viability % DMSO: 28.2 % DMSO
[6]
  Normalized viability % DMSO: 2.2 % DMSO
[7]; 1 μM
  Normalized viability % DMSO: 31.1 % DMSO
[7]; 10 μM
  Normalized viability % DMSO: 31.9 % DMSO
[8]
  Normalized viability % DMSO: 15.8 % DMSO
[9]; read-out: IC50
  IC50: 0.00794 µM
[10]; 1 μM
  Normalized viability % DMSO: 43.0 % DMSO
[10]; 10 μM
  Normalized viability % DMSO: 22.5 % DMSO
[11]; 1 μM
  Normalized viability % DMSO: 44.3 % DMSO
[11]; 10 μM
  Normalized viability % DMSO: 26.4 % DMSO
[12]
  IC50: 0.0132 µM
[13]
  Normalized viability % DMSO: 7.1 % DMSO
[14]
  Normalized viability % DMSO: 25.8 % DMSO
[15]
  Normalized viability % DMSO: 30.2 % DMSO
[16]; 1 μM
  Normalized viability % DMSO: 8.6 % DMSO
[16]; 10 μM
  Normalized viability % DMSO: 6.7 % DMSO
[17]
  Normalized viability % DMSO: 27.7 % DMSO

## (2S,4R)-N-[2-(4-bromoindol-1-yl)ethyl]-1-[(2S)-2-(4-cyclopropyltriazol-1-yl)-3,3-dimethyl-butanoyl]-4-hydroxy-pyrrolidine-2-carboxamide [Compound 469]
[9]; read-out: IC50
  IC50: 0.21 µM
[9]; IC50 values measured in the presence of digitonin, read-out: IC50 + Digi (μM)*
  IC50: 0.435 µM
[18]
  Normalized viability % DMSO: 62.6 % DMSO

## CC(C)(NC(=O)[C@@H]1C[C@@H](O)CN1C(=O)[C@@H](n1cc(C2CC2)nn1)C(C)(C)C)C(=O)Nc1ccccc1 [Compound 480, (2S,4R)-N-(2-anilino-1,1-dimethyl-2-oxo-ethyl)-1-[(2S)-2-(4-cyclopropyltriazol-1-yl)-3,3-dimethyl-butanoyl]-4-hydroxy-pyrrolidine-2-carboxamide]
[1]
  Normalized viability % DMSO: 11.3 % DMSO
[2]; 10 μM
  Normalized viability % DMSO: 47.9 % DMSO
[3]; 1 μM
  Normalized viability % DMSO: 38.1 % DMSO
[3]; 10 μM
  Normalized viability % DMSO: 22.7 % DMSO
[4]; 1 μM
  Normalized viability % DMSO: 32.4 % DMSO
[4]; 10 μM
  Normalized viability % DMSO: 5.6 % DMSO
[6]
  Normalized viability % DMSO: 38.4 % DMSO
[7]; 10 μM
  Normalized viability % DMSO: 15.5 % DMSO
[8]
  Normalized viability % DMSO: 23.6 % DMSO
[9]; read-out: IC50
  IC50: 0.135 µM
[11]; 10 μM
  Normalized viability % DMSO: 8.7 % DMSO
[12]
  IC50: 6.66 µM
[13]
  Normalized viability % DMSO: 38.1 % DMSO
[14]
  Normalized viability % DMSO: 13.7 % DMSO
[16]; 1 μM
  Normalized viability % DMSO: 37.0 % DMSO
[16]; 10 μM
  Normalized viability % DMSO: 8.2 % DMSO
[17]
  Normalized viability % DMSO: 12.6 % DMSO
